Each structure is given as a SMILES string.

Here are results for 2 compounds from patent EP3409671B1, “ISOTHIAZOLE DERIVATIVES AS GPR120 AGONISTS FOR THE TREATMENT OF TYPE II DIABETES” (Janssen Pharmaceutica NV, priority 2014, dated 2015).

This assay has as its target T1, Human GPR120 short form (Homo sapiens, UniProt Q5NUL3).
T1 construct: expressed in transfected cells
T1 sequence (Q5NUL3 1-361): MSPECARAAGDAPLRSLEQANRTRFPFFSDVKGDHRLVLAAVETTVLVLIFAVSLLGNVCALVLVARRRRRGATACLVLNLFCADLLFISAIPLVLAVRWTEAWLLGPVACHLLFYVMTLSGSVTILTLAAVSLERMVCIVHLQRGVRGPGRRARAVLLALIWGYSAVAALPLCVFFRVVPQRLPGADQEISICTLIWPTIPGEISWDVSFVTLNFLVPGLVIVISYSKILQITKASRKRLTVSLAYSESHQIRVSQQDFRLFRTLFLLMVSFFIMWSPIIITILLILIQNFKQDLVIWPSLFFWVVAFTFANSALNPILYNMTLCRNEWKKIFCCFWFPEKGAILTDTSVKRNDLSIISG
Put plainly: Human GPR120 Calcium Flux Assay, Procedure Calcium A. Format: cell-based. The conditions noted are these: HEK-293 cells expressing Human GPR120 short form, FLIPR, 2500 cells / well; read-out: GPR120 Ca^2+ Assay A EC50. The source says: This in vitro assay serves to assess test compound agonist activity against the short splice variant (SVS with Accession number NM_001195755.1 confirmed by sequencing data) of the GPR120 receptor. The Human Short splice variant #2 (NM_001195755.1) is missing an in-frame coding exon compared to variant 1 (the Human Long splice variant NM_181745.3), resulting in a shorter isoform (GPR120-S) lacking a 16 aa protein segment compared to isoform GPR120-L. The assay platform utilizes HEK-293 cells stably transfected to express the Human GPR120 short form. These cells are first loaded with the Ca^+2 sensitive dye, Fluo-4 NW. Upon stimulation, intracellular released Ca^+2 can bind to the dye and alter its fluorescence intensity. This increase in fluorescence signal, and thus the flux in intracellular [Ca^2+], is detected and quantitated by fluorescence imaging using a FLIPR reader. The effect of the agonist is measured as a function of concentration and used to calculate an EC50 based upon a response curve.
In this procedure 2500 cells / well were employed.
A Human GPR120 clone (Genbank accession number NM _001195755.1) was placed into the pcDNA3.1 mammalian expression vector carrying the neomycin resistance gene. A stable mammalian cell was generated by placing the above clone into a HEK293 background. Clonal cells responding to long chain fatty acids had expression levels of GPR120 confirmed by RT-qPCR. Human HEK-GPR120 cells were cultured in Dulbecco's Modified Eagle's Medium (DMEM)/F12 medium supplemented with 10% fetal bovine serum (FBS), 1% L-Glutamine and 1% penicillin/streptomycin and 0.5 mg/ml G-418. Cells were split 2 times a week to keep the cells in the log-phase growth.
In preparation for the assay, HEK cells stably transfected with Human GPR120 (2.5K cells per well in 25uL growth medium) were seeded into 384-well plates and then incubated overnight (37°C, 5% CO2). The next day, the media was changed to 20 µL assay buffer and the cell starved for 1h at 37°C. […]
The assay was performed on a FLIPR plate reader using the following parameters. Baseline was read for 10 seconds at 1 sec intervals. The program was set to transfer 10µL of ligand from compound plate to cell plate after baseline reading. […] After compound addition, each well was read for 300 sec, with measurements collected at 1 sec intervals.
The kinetic data from the FLIPR was based upon a 5 minute window for data collection. The fluorescence of each sample well was used for individual calculations of a normalized RFU value, which was defined as maximum response minus the minimum response. The normalized fluorescence reading (RFU) was calculated as follows: RFU = Fmax−Fmin [formula] […]

`O=C(O)CCc1ccc(OCc2c(C(F)(F)F)nsc2-c2ccc(Cl)cc2)c(Cl)c1Cl` [Cpd 55, 3-(2,3-dichloro-4-[[5-(4-chlorophenyl)-3-(trifluoromethyl)-1,2-thiazol4-yl]methoxy]phenyl) propanoic acid]: the EC50 (commonly the midpoint of the concentration-response curve) turned out to be 231 nM.
The same measure for `O=C(O)CCc1cc(F)c(OCc2c(Cl)nsc2-c2ccc(Cl)cc2)c(F)c1` [Cpd 75, 3-(4-[[3-chloro-5-(4-chlorophenyl)-1,2-thiazol-4-yl]methoxy]-3,5-difluorophenyl)propanoic acid]: 42 nM.
